Source: patent US20260027179A1, “ANTI-SYNUCLEINOPATHY PEPTIDE AND METHODS TO TREAT NEURODEGENERATIVE DISEASES” (University of British Columbia, priority 2021, published 2026)

Experiments:
[1] = tested on: Iba-1; test: PFF mouse model of spreading synucleinopathy, microglial Iba-1 immunostaining; type: in vivo; details: PFF-injected M83 mice, 40 mg/kg i.p. over 20 days, at three months, vs Tat-βsyn group
Description: (§1) M83 mice were injected intracerebrally (i.e.) into the right dorsal striatum with either 12.5 μg of α-synuclein pre-formed fibrils (PFFs) or PBS. Starting at 3 days prior to the PFF injection, mice were treated daily for 12 days with either Tat-βsyn or Tat-βsyn-degron peptide (40 mg/kg; i.p.) and once every other day for the subsequent 8 days (20 days in total, FIG. 5a). At the end of three months, coronal brain sections of the M83 mice were prepared and stained with antibodies against serine 129-phosphorylated α-synuclein (pS129syn), a marker of pathogenic synuclein aggregates, and Iba-1, a calcium-binding protein specifically expressed in macrophage and microglia as a marker of neuroinflammation.
(§2) PFFs were generated in-house based on the Volpicelli-Daley et al protocol. […] PFFs were characterized using a negative staining protocol and analyzed using an electron microscope. […] PFFs were visualized using a transmission electron microscope (FEI Tecnai 12 Bio Twin 120 kV TEM) coupled to a AMT XR80C CCD camera, and analyzed with ImageJ 1.5 and Matlab 2017b software. […]
(§3) Brains from M83 mice that received i.e. and i.p. injections were processed for immunohistochemistry. […] Coronal sections were analyzed using Fiji-ImageJ 1.5 software to detect the total area labeled with the peroxidase immunoreaction product. The results were analyzed using GraphPad Prism software.

[2] = target: T1, phosphorylated (pS129) α-synuclein (Homo sapiens, UniProt P37840, A53T); test: PFF mouse model of spreading synucleinopathy, pS129 α-synuclein immunostaining; type: in vivo; details: PFF-injected M83 mice, 40 mg/kg i.p. over 20 days, at three months, vs Tat-βsyn group
T1 construct: tissue The Jackson Laboratory 004479; host or cells: coronal brain sections (substantia nigra, pons) of M83 mice injected with human α-synuclein PFFs
Description: as §1, §2, §3

## YGRKKRRQRRRRTKSGVYLVGRRRG (The sequence is synthesized (YGRKKRRQRRRRTKSGVYLVGRRRG)) [Tat-βsyn-degron]
[1]
  Iba-1 staining in pons: significantly reduced the level of Iba-1 staining
  Iba-1 staining in substantia nigra pars compacta: no observable effect
[2]
  pS129syn staining in pons: significantly reduced
  pS129syn staining in substantia nigra pars compacta: significantly reduced
